How the values were obtained:
[1] = biological target: Cyclin-dependent kinase 18 (Homo sapiens) (UniProt Q07002)
[2] = biological target: Serine/threonine-protein kinase DCLK1 (Homo sapiens) (UniProt O15075)
[3] = system: Epidermal growth factor receptor (Homo sapiens), P00533 [G719S]
[4] = biological target: Sigma non-opioid intracellular receptor 1 (Homo sapiens) (UniProt Q99720); settings: Compound concentration 10.0 uM
[5] = biological target: Homeodomain-interacting protein kinase 4 (Homo sapiens) (UniProt Q8NE63)
[6] = biological target: Serine/threonine-protein kinase 38 (Homo sapiens) (UniProt Q15208)
Chain of Serine/threonine-protein kinase 38 (Homo sapiens) (Q15208 2-465 limits assumed): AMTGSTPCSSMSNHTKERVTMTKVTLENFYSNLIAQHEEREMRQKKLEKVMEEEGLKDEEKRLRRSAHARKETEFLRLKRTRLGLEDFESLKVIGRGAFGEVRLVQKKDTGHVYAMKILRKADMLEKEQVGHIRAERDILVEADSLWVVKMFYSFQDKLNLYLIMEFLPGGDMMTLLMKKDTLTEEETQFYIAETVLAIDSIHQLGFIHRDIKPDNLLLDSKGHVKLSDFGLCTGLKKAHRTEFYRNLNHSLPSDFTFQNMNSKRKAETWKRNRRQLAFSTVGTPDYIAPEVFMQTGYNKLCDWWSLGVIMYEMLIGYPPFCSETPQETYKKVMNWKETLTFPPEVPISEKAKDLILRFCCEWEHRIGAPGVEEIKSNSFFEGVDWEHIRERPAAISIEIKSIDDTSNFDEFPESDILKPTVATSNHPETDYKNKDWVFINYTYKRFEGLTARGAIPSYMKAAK

[7] = system: Receptor-type tyrosine-protein kinase FLT3 (Homo sapiens), P36888 [UNDEFINED MUTATION]
Chain of Receptor-type tyrosine-protein kinase FLT3 (Homo sapiens), P36888 [UNDEFINED MUTATION] (P36888 whole entry, looked up, change not shown): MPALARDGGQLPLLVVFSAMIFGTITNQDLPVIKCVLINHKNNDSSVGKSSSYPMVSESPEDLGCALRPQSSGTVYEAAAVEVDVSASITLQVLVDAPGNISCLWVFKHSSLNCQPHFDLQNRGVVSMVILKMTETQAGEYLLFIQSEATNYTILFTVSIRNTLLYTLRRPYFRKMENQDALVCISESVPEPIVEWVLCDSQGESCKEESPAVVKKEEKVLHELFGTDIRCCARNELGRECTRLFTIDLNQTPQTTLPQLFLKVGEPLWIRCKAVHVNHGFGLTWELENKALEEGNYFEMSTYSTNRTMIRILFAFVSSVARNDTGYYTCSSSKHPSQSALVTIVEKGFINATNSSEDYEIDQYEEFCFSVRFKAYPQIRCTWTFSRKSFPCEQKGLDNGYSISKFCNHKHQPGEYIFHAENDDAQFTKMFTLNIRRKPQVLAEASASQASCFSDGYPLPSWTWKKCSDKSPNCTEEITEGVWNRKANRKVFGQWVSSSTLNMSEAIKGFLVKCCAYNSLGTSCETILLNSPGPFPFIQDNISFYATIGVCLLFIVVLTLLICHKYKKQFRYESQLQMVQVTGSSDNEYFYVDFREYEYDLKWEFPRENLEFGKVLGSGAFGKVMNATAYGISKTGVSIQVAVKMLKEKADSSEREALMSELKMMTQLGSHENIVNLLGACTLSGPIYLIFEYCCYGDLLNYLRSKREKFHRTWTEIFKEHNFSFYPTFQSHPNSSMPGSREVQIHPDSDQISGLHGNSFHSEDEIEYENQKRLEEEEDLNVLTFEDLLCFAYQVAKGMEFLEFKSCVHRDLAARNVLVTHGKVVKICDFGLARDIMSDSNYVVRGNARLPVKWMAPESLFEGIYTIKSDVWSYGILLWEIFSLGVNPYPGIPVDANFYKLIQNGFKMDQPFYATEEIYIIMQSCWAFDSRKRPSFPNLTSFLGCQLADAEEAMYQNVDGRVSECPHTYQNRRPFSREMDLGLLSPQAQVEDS

[8] = biological target: Serine/threonine-protein kinase tousled-like 1 (Homo sapiens) (UniProt Q9UKI8)
[9] = biological target: Serine/threonine-protein kinase PRP4 homolog (Homo sapiens) (UniProt Q13523)
Chain of Serine/threonine-protein kinase PRP4 homolog (Homo sapiens) (Q13523 whole entry): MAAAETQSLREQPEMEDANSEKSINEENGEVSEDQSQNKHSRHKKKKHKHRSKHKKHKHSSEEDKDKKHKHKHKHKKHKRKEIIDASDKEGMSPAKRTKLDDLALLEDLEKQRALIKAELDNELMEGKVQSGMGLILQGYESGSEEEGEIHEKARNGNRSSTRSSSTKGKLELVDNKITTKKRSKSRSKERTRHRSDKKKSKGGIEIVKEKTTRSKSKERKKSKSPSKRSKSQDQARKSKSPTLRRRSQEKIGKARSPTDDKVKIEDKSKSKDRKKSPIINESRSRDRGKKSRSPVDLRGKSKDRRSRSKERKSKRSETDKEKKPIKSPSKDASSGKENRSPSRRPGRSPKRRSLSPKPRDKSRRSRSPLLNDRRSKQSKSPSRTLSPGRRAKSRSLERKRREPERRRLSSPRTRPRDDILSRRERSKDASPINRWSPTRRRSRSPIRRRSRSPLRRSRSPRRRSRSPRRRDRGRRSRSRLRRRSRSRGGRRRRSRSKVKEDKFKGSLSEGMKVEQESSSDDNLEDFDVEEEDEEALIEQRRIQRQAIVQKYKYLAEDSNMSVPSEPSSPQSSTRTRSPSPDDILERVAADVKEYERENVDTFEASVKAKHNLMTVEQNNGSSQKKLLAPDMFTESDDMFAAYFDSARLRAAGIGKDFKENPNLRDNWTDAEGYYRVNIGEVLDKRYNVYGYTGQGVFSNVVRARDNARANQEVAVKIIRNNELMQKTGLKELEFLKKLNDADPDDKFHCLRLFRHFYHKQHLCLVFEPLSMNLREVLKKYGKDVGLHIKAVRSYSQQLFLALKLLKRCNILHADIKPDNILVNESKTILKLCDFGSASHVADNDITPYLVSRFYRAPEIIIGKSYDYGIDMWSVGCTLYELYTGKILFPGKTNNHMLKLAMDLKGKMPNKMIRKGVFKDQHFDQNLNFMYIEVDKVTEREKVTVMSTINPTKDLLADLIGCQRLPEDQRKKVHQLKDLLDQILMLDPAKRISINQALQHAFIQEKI

[10] = biological target: T1, Serine/threonine-protein kinase Sgk1 (Homo sapiens) (UniProt O00141)
T1 sequence (whole entry): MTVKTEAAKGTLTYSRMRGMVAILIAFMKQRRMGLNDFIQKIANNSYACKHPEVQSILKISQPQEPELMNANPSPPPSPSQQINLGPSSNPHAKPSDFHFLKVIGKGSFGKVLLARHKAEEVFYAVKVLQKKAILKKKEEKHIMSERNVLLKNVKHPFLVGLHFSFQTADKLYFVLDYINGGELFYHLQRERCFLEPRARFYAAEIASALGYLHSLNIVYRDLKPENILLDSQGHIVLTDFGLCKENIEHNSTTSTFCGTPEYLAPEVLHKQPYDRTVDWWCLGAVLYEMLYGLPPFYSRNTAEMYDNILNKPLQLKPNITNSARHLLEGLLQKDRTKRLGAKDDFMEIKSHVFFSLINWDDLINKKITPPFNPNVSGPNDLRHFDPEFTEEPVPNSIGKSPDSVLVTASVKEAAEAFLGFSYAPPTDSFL

[11] = biological target: TGF-beta receptor type-2 (Homo sapiens) (UniProt P37173)
[12] = biological target: Dual specificity mitogen-activated protein kinase kinase 1 (Homo sapiens) (UniProt Q02750)
[13] = system: Phosphatidylinositol 4,5-bisphosphate 3-kinase catalytic subunit alpha isoform (Homo sapiens), P42336 [M1043I]
[14] = biological target: Beta-3 adrenergic receptor (Homo sapiens) (UniProt P13945); settings: Compound concentration 10.0 uM
Chain of Beta-3 adrenergic receptor (Homo sapiens) (P13945 whole entry, looked up, canonical isoform): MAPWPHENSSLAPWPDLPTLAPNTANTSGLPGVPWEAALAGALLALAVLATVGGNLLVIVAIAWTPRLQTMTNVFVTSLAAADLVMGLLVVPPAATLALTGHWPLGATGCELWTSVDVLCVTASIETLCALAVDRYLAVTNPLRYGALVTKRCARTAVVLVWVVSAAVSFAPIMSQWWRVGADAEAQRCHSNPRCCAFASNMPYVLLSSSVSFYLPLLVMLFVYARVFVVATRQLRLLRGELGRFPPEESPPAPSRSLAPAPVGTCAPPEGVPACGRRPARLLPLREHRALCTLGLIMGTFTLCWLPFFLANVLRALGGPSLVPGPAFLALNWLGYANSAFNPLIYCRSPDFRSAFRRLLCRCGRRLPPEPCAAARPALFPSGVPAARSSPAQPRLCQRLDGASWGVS

[15] = system: Phosphatidylinositol 4,5-bisphosphate 3-kinase catalytic subunit alpha isoform (Homo sapiens), P42336 [E542K]
[16] = biological target: Cytoplasmic tyrosine-protein kinase BMX (Homo sapiens) (UniProt P51813)
[17] = system: Epidermal growth factor receptor (Homo sapiens), P00533 [UNDEFINED MUTATION]
[18] = biological target: Calcium/calmodulin-dependent protein kinase type 1 (Homo sapiens) (UniProt Q14012)
[19] = biological target: Cyclin-dependent kinase 14 (Homo sapiens) (UniProt O94921)
[20] = biological target: Serine/threonine-protein kinase Nek9 (Homo sapiens) (UniProt Q8TD19)
[21] = biological target: Myosin light chain kinase family member 4 (Homo sapiens) (UniProt Q86YV6)
[22] = biological target: Bone morphogenetic protein receptor type-1B (Homo sapiens) (UniProt O00238)
Chain of Bone morphogenetic protein receptor type-1B (Homo sapiens) (O00238 whole entry): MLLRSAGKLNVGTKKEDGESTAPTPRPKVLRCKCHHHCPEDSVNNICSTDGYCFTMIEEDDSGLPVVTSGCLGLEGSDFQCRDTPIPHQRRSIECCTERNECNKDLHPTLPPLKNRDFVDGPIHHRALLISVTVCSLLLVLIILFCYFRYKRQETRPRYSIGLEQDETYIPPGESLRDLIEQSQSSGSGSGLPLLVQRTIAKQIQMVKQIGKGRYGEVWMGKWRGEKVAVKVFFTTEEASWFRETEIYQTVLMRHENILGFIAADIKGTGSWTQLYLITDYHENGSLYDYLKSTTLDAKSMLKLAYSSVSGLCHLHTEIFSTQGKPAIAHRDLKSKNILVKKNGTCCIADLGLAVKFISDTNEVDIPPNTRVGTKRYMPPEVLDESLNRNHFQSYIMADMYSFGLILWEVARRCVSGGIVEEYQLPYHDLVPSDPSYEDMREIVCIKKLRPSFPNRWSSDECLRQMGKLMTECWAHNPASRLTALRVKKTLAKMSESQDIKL

[23] = biological target: Mitogen-activated protein kinase kinase kinase 7 (Homo sapiens) (UniProt O43318)
Chain of Mitogen-activated protein kinase kinase kinase 7 (Homo sapiens) (O43318 whole entry): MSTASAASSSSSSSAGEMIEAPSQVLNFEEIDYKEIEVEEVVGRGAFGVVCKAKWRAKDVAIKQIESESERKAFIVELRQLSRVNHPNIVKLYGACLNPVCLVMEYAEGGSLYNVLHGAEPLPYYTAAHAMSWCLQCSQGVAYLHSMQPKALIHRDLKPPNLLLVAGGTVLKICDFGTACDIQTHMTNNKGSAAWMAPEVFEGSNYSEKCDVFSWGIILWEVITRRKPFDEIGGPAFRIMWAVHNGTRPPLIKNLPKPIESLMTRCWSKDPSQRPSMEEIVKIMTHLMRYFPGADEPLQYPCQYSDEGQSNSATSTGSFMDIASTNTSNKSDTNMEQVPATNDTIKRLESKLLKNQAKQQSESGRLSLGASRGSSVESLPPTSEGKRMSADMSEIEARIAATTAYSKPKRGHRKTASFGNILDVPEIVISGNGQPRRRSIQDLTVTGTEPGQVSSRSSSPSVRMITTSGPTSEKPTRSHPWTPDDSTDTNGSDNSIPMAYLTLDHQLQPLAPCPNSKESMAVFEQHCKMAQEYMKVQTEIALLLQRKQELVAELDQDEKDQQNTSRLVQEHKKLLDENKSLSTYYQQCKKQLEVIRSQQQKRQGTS

[24] = biological target: Cyclin-dependent kinase 17 (Homo sapiens) (UniProt Q00537)
[25] = biological target: Serine/threonine-protein kinase Sgk2 (Homo sapiens) (UniProt Q9HBY8)
[26] = biological target: MAP kinase-interacting serine/threonine-protein kinase 2 (Homo sapiens) (UniProt Q9HBH9)
[27] = biological target: cGMP-dependent protein kinase 2 (Homo sapiens) (UniProt Q13237)
[28] = biological target: Ephrin type-A receptor 5 (Homo sapiens) (UniProt P54756)
[29] = biological target: Wee1-like protein kinase 2 (Homo sapiens) (UniProt P0C1S8)
Focal adhesion kinase 1 = Focal adhesion kinase 1 (Homo sapiens, UniProt Q05397)
[30] = biological target: Tyrosine-protein kinase Fes/Fps (Homo sapiens) (UniProt P07332)
[31] = biological target: Ephrin type-B receptor 2 (Homo sapiens) (UniProt P29323)
[32] = system: Fibroblast growth factor receptor 3 (Homo sapiens), P22607 [G697C]
[33] = biological target: Serine/threonine-protein kinase ICK (Homo sapiens) (UniProt Q9UPZ9)
[34] = biological target: Serine/threonine-protein kinase N2 (Homo sapiens) (UniProt Q16513)
[35] = biological target: Calcium/calmodulin-dependent protein kinase kinase 2 (Homo sapiens) (UniProt Q96RR4)
[36] = biological target: Muscarinic acetylcholine receptor M1 (Homo sapiens) (UniProt P11229); settings: Compound concentration 10.0 uM
[37] = biological target: Serine/threonine-protein kinase BRSK2 (Homo sapiens) (UniProt Q8IWQ3)
[38] = system: ALK tyrosine kinase receptor (Homo sapiens), Q9UM73 [C1156Y]
[39] = Compound concentration 100.0 nM
[40] = Compound concentration 1000.0 nM

Chain of Sigma non-opioid intracellular receptor 1 (Homo sapiens) (Q99720 whole entry): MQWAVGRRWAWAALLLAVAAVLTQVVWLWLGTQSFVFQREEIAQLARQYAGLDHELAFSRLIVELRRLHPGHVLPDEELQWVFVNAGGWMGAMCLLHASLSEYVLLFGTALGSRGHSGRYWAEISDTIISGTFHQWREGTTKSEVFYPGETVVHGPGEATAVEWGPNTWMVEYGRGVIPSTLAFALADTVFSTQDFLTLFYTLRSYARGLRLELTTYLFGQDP
Chain of Serine/threonine-protein kinase DCLK1 (Homo sapiens) (O15075 whole entry): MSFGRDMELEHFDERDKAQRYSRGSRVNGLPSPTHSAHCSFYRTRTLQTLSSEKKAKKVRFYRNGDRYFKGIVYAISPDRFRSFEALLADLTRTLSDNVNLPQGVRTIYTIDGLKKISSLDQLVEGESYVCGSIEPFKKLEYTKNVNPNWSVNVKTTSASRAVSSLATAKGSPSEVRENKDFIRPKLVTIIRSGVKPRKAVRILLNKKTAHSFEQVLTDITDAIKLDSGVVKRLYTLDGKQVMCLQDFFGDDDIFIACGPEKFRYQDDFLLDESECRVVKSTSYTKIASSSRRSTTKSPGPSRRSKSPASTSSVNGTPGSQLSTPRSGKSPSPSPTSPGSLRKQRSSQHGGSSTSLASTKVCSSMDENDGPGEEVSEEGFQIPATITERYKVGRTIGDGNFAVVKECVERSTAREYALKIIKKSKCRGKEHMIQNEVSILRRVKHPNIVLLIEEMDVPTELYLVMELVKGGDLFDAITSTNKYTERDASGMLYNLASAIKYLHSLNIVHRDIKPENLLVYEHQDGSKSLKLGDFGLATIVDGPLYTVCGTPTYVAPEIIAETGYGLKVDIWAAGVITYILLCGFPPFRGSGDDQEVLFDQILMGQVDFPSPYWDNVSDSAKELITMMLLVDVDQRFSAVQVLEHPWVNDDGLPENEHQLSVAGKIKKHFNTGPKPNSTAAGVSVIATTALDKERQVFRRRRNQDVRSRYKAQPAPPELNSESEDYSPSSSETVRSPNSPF

CNC(=O)c1ccc(Nc2ncc(C(F)(F)F)c(NCc3nccnc3N(C)S(C)(=O)=O)n2)cc1 [DEFACTINIB]
inactive: residual activity [1, 39] 68% | residual activity [2, 39] 99% | residual activity [3, 39] 92% | inhibition [4] 40.1% | residual activity [5, 39] 54% | residual activity [6, 39] 86% | residual activity [8, 39] 73% | residual activity [9, 39] 69% | residual activity [10, 39] 56% | residual activity [11, 39] 100% | residual activity [12, 39] 100% | residual activity [13, 39] 100% | inhibition [14] 4.63% | residual activity [16, 39] 71% | residual activity [17, 39] 97% | residual activity [18, 39] 100% | residual activity [19, 39] 88% | residual activity [20, 39] 80% | residual activity [21, 39] 100% | residual activity [22, 39] 65% | residual activity [23, 39] 57% | residual activity [24, 39] 88% | residual activity [25, 39] 96% | residual activity [26, 39] 100% | residual activity [27, 39] 100% | residual activity [28, 39] 64% | residual activity [29, 39] 97% | residual activity [30, 39] 82% | residual activity [31, 39] 76% | residual activity [32, 39] 100% | residual activity [33, 39] 68% | residual activity [35, 39] 68% | inhibition [36] 19.3% | residual activity [37, 39] 100% | residual activity [38, 39] 74%
active: residual activity [7, 39] 26% | residual activity [15, 39] 49% | residual activity (Focal adhesion kinase 1; [39]) 0.2% | residual activity [34, 39] 37%

CN(c1ccnc(CNc2nc(Nc3ccc4c(c3)CC(=O)N4)ncc2C(F)(F)F)n1)S(C)(=O)=O [PF-00911705]
inactive: residual activity [1, 40] 100% | residual activity [2, 40] 57% | residual activity [3, 40] 89% | inhibition [4] 23.1% | residual activity [6, 40] 65% | residual activity [8, 40] 79% | residual activity [10, 40] 66% | residual activity [11, 40] 100% | residual activity [12, 40] 85% | residual activity [13, 40] 95% | inhibition [14] 1.64% | residual activity [15, 40] 100% | residual activity [16, 40] 80% | residual activity [17, 40] 75% | residual activity [18, 40] 72% | residual activity [19, 40] 86% | residual activity [20, 40] 63% | residual activity [24, 40] 85% | residual activity [25, 40] 75% | residual activity [26, 40] 91% | residual activity [27, 40] 68% | residual activity [28, 40] 82% | residual activity [30, 40] 74% | residual activity [31, 40] 81% | residual activity [32, 40] 89% | residual activity [33, 40] 100% | residual activity [35, 40] 69% | inhibition [36] -6.58% | residual activity [37, 40] 97% | residual activity [38, 40] 77%
active: residual activity [5, 40] 35% | residual activity [7, 40] 5.5% | residual activity [9, 40] 23% | residual activity [21, 40] 35% | residual activity [22, 40] 3.6% | residual activity [23, 40] 48% | residual activity [29, 40] 28% | residual activity (Focal adhesion kinase 1; [40]) 4.9% | residual activity [34, 40] 22%

Reference: ChEMBL document CHEMBL4507299, “Data for DCP probe PF-04554878” (2021)
